Experimental data from ChEMBL document CHEMBL3885881, “DrugMatrix”.

Species: Rattus norvegicus
Assay: DrugMatrix - Regimen: Daily Repeat
Assay type: toxicity, organism-based, Sprague-Dawley
Design: regimen Daily Repeat, gender Male, age 6-8 weeks
Settings: in vivo, po, route oral GAVAGE, vehicle .5 % CMC; for ABSOLUTE BASOPHIL / ABSOLUTE EOSINOPHIL / ABSOLUTE LYMPHOCYTE / ABSOLUTE MONOCYTE / ABSOLUTE SEGMENTED NEUTROPHIL / BASOPHIL / EOSINOPHIL / ERYTHROCYTE COUNT / HEMATOCRIT / HEMOGLOBIN / LEUKOCYTE COUNT / LYMPHOCYTE / MEAN CORPUSCULAR HEMOGLOBIN / MEAN CORPUSCULAR HEMOGLOBIN CONCENTRATION / MEAN CORPUSCULAR VOLUME / MONOCYTE / NEUTROPHIL / NUCLEATED RED BLOOD CELLS / PLATELET COUNT: tissue Blood; for ALANINE AMINOTRANSFERASE / ALBUMIN / ASPARTATE AMINOTRANSFERASE / BLOOD UREA NITROGEN / CARBON DIOXIDE / CHLORIDE / CREATINE PHOSPHOKINASE / CREATININE / GLUCOSE / LACTATE DEHYDROGENASE / LIPASE / PHOSPHORUS / POTASSIUM / SODIUM / TOTAL BILIRUBIN / TOTAL PROTEIN: tissue Plasma
[1] = 16 mg/kg, 72 h, dose level Low, time 3 day
[2] = 16 mg/kg, 120 h, dose level Low, time 5 day
[3] = 2500 mg/kg, 72 h, dose level High, time 3 day
[4] = 2500 mg/kg, 120 h, dose level High, time 5 day

With `CC1=C(C(=O)O)N2C(=O)[C@@H](NC(=O)[C@H](N)c3ccccc3)[C@H]2SC1` [CEPHALEXIN ANHYDROUS] the “ABSOLUTE BASOPHIL” value [1] was 0 CELLS/uL, the “ABSOLUTE EOSINOPHIL” value [1] was 0 CELLS/uL and the “ABSOLUTE LYMPHOCYTE” value [1] was 17436 CELLS/uL. The “ABSOLUTE MONOCYTE” value [1] was 124 CELLS/uL, the “ABSOLUTE SEGMENTED NEUTROPHIL” value [1] was 706.67 CELLS/uL and the BASOPHIL [1] was 0%. The EOSINOPHIL [1] was 0%, the “ERYTHROCYTE COUNT” value [1] was 5.81 x10E6/uL and the HEMATOCRIT [1] was 35.97%. The HEMOGLOBIN [1] was 13.93 G/DL, the “LEUKOCYTE COUNT” value [1] was 18.27 x10E3/uL and the LYMPHOCYTE [1] was 95.33%. For the same compound, the “MEAN CORPUSCULAR HEMOGLOBIN” value [1] was 24.03 pg, the “MEAN CORPUSCULAR HEMOGLOBIN CONCENTRATION” value [1] was 38.8 G/DL and the “MEAN CORPUSCULAR VOLUME” value [1] was 61.97 fL. For the same compound, the MONOCYTE [1] was 0.67%, the NEUTROPHIL [1] was 4% and the “NUCLEATED RED BLOOD CELLS” value [1] was 0 /100WBC. The “PLATELET COUNT” value [1] was 1279 x10E3/uL, the “ALANINE AMINOTRANSFERASE” value [1] was 50.33 u/L and the ALBUMIN [1] was 4.13 G/DL. The “ASPARTATE AMINOTRANSFERASE” value [1] was 86.67 u/L, the “BLOOD UREA NITROGEN” value [1] was 14.33 mg/dL and the “CARBON DIOXIDE” value [1] was 30 mmol/L. For the same compound, the CHLORIDE [1] was 101 MEQ/L, the “CREATINE PHOSPHOKINASE” value [1] was 208 u/L and the CREATININE [1] was 0.23 mg/dL. The GLUCOSE [1] was 163.33 mg/dL, the “LACTATE DEHYDROGENASE” value [1] was 208.33 u/L and the LIPASE [1] was 9 u/L. For the same compound, the PHOSPHORUS [1] was 13.27 mg/dL, the POTASSIUM [1] was 7.33 MEQ/L and the SODIUM [1] was 146.17 MEQ/L. The “TOTAL BILIRUBIN” value [1] was 0.17 mg/dL, the “TOTAL PROTEIN” value [1] was 5.9 G/DL and the “ABSOLUTE BASOPHIL” value [2] was 0 CELLS/uL. The “ABSOLUTE EOSINOPHIL” value [2] was 0 CELLS/uL, the “ABSOLUTE LYMPHOCYTE” value [2] was 13406.33 CELLS/uL and the “ABSOLUTE MONOCYTE” value [2] was 44 CELLS/uL. The “ABSOLUTE SEGMENTED NEUTROPHIL” value [2] was 716.33 CELLS/uL, the BASOPHIL [2] was 0% and the EOSINOPHIL [2] was 0%. For the same compound, the “ERYTHROCYTE COUNT” value [2] was 5.62 x10E6/uL, the HEMATOCRIT [2] was 33.87% and the HEMOGLOBIN [2] was 13.33 G/DL. The “LEUKOCYTE COUNT” value [2] was 14.17 x10E3/uL, the LYMPHOCYTE [2] was 94.67% and the “MEAN CORPUSCULAR HEMOGLOBIN” value [2] was 23.63 pg. For the same compound, the “MEAN CORPUSCULAR HEMOGLOBIN CONCENTRATION” value [2] was 39.33 G/DL, the “MEAN CORPUSCULAR VOLUME” value [2] was 60.17 fL and the MONOCYTE [2] was 0.33%. The NEUTROPHIL [2] was 5%, the “NUCLEATED RED BLOOD CELLS” value [2] was 0 /100WBC and the “PLATELET COUNT” value [2] was 900 x10E3/uL. The “ALANINE AMINOTRANSFERASE” value [2] was 49 u/L, the ALBUMIN [2] was 4.2 G/DL and the “ASPARTATE AMINOTRANSFERASE” value [2] was 98 u/L. The “BLOOD UREA NITROGEN” value [2] was 14.67 mg/dL, the “CARBON DIOXIDE” value [2] was 24 mmol/L and the CHLORIDE [2] was 103.33 MEQ/L. The “CREATINE PHOSPHOKINASE” value [2] was 652.67 u/L, the CREATININE [2] was 0.25 mg/dL and the GLUCOSE [2] was 200.67 mg/dL. The “LACTATE DEHYDROGENASE” value [2] was 425.67 u/L, the LIPASE [2] was 9 u/L and the PHOSPHORUS [2] was 13.2 mg/dL. The POTASSIUM [2] was 6.1 MEQ/L, the SODIUM [2] was 146.5 MEQ/L and the “TOTAL BILIRUBIN” value [2] was 0.17 mg/dL. For the same compound, the “TOTAL PROTEIN” value [2] was 6.13 G/DL, the “ABSOLUTE BASOPHIL” value [3] was 0 CELLS/uL and the “ABSOLUTE EOSINOPHIL” value [3] was 47.67 CELLS/uL. For the same compound, the “ABSOLUTE LYMPHOCYTE” value [3] was 14295 CELLS/uL, the “ABSOLUTE MONOCYTE” value [3] was 55 CELLS/uL and the “ABSOLUTE SEGMENTED NEUTROPHIL” value [3] was 435.67 CELLS/uL. For the same compound, the BASOPHIL [3] was 0%, the EOSINOPHIL [3] was 0.33% and the “ERYTHROCYTE COUNT” value [3] was 5.55 x10E6/uL. For the same compound, the HEMATOCRIT [3] was 35.7%, the HEMOGLOBIN [3] was 14 G/DL and the “LEUKOCYTE COUNT” value [3] was 14.83 x10E3/uL. For the same compound, the LYMPHOCYTE [3] was 96.33%, the “MEAN CORPUSCULAR HEMOGLOBIN” value [3] was 25.23 pg and the “MEAN CORPUSCULAR HEMOGLOBIN CONCENTRATION” value [3] was 39.2 G/DL. The “MEAN CORPUSCULAR VOLUME” value [3] was 64.3 fL, the MONOCYTE [3] was 0.33% and the NEUTROPHIL [3] was 3%. For the same compound, the “NUCLEATED RED BLOOD CELLS” value [3] was 0 /100WBC, the “PLATELET COUNT” value [3] was 1231 x10E3/uL and the “ALANINE AMINOTRANSFERASE” value [3] was 67.33 u/L. For the same compound, the ALBUMIN [3] was 3.93 G/DL, the “ASPARTATE AMINOTRANSFERASE” value [3] was 82.67 u/L and the “BLOOD UREA NITROGEN” value [3] was 16 mg/dL. The “CARBON DIOXIDE” value [3] was 31.67 mmol/L, the CHLORIDE [3] was 100.33 MEQ/L and the “CREATINE PHOSPHOKINASE” value [3] was 209 u/L. The CREATININE [3] was 0.17 mg/dL, the GLUCOSE [3] was 140 mg/dL and the “LACTATE DEHYDROGENASE” value [3] was 154.67 u/L. For the same compound, the LIPASE [3] was 9 u/L, the PHOSPHORUS [3] was 10.93 mg/dL and the POTASSIUM [3] was 6.36 MEQ/L. For the same compound, the SODIUM [3] was 145.43 MEQ/L, the “TOTAL BILIRUBIN” value [3] was 0.2 mg/dL and the “TOTAL PROTEIN” value [3] was 5.67 G/DL. The “ABSOLUTE BASOPHIL” value [4] was 0 CELLS/uL, the “ABSOLUTE EOSINOPHIL” value [4] was 48.67 CELLS/uL and the “ABSOLUTE LYMPHOCYTE” value [4] was 11635.33 CELLS/uL. The “ABSOLUTE MONOCYTE” value [4] was 0 CELLS/uL, the “ABSOLUTE SEGMENTED NEUTROPHIL” value [4] was 2649.33 CELLS/uL and the BASOPHIL [4] was 0%. The EOSINOPHIL [4] was 0.33%, the “ERYTHROCYTE COUNT” value [4] was 5.85 x10E6/uL and the HEMATOCRIT [4] was 35.6%. The HEMOGLOBIN [4] was 13.87 G/DL, the “LEUKOCYTE COUNT” value [4] was 14.33 x10E3/uL and the LYMPHOCYTE [4] was 81.67%. For the same compound, the “MEAN CORPUSCULAR HEMOGLOBIN” value [4] was 23.8 pg, the “MEAN CORPUSCULAR HEMOGLOBIN CONCENTRATION” value [4] was 38.93 G/DL and the “MEAN CORPUSCULAR VOLUME” value [4] was 61.07 fL. The MONOCYTE [4] was 0%, the NEUTROPHIL [4] was 18% and the “NUCLEATED RED BLOOD CELLS” value [4] was 0 /100WBC. The “PLATELET COUNT” value [4] was 1275.33 x10E3/uL, the “ALANINE AMINOTRANSFERASE” value [4] was 101.33 u/L and the ALBUMIN [4] was 4.23 G/DL. The “ASPARTATE AMINOTRANSFERASE” value [4] was 94.67 u/L, the “BLOOD UREA NITROGEN” value [4] was 18.33 mg/dL and the “CARBON DIOXIDE” value [4] was 28 mmol/L. For the same compound, the CHLORIDE [4] was 105.33 MEQ/L, the “CREATINE PHOSPHOKINASE” value [4] was 302 u/L and the CREATININE [4] was 0.24 mg/dL. For the same compound, the GLUCOSE [4] was 174.67 mg/dL, the “LACTATE DEHYDROGENASE” value [4] was 98.67 u/L and the LIPASE [4] was 9.67 u/L. The PHOSPHORUS [4] was 11.77 mg/dL, the POTASSIUM [4] was 5.92 MEQ/L and the SODIUM [4] was 150.03 MEQ/L. The “TOTAL BILIRUBIN” value [4] was 0.17 mg/dL and the “TOTAL PROTEIN” value [4] was 5.97 G/DL.
